Data reported in US20210330611A1, “THERAPY FOR NEUROLOGICAL DISEASES/DISORDERS” (priority 2020, published 2021).

Molecular target: T1, GGT (Mus musculus, UniProt Q60928)
T1 construct: GGT activity in BMDMs left unstimulated or stimulated with fibrin after acivicin or vehicle control treatment; endogenous in cells; host or cells: mouse bone marrow-derived macrophages (BMDMs), fibrin-stimulated
Assay: GGT activity assay in fibrin-stimulated BMDMs (enzymatic kit, ProteoGREEN-gGlu probe)
Type: cell-based
Conditions: FIG. 6c, FIG. 13A, B
Method: GGT activity assay. GGT activity was measured using the MaxDiscovery gamma-Glutamyl Transferase (GGT) Enzymatic Assay Kit (Bioo Scientific) according to the manufacturer's protocol. […]. For in vivo GGT activity assay, spinal cord tissues from the onset of MOG35-55 EAE or LPS-injected substantia nigra area at 12 h were prepared. Tissues were homogenized in 0.1 M Tris-HCl and centrifuged at 13,000 g for 30 min at 4° C. The supernatant was collected and subsequently assessed for GGT activity. The absorbance at 405 nm was detected with a SpectraMax M5 microplate reader (Molecular Devices) with SoftMax Pro 5.2 software (Phoenix Technologies Ltd.). The GGT activity in IU/1 was calculated following the manufacturer's protocol by multiplying the average increase in absorbance at 405 nm over 10 min GGT activity was also measured using a fluorescent probe, ProteoGREEN-gGlu (Goryo Chemical, Hokkaido, Japan), according to the manufacturer's protocol. Cultured BMDMs were plated on 96-well, black μ-clear-bottom microtiter plates (Greiner Bio-One) pre-coated with 25 μg/ml fibrin. […] The fluorescence intensity (excitation/emission filter pairs of 488 nm/520 nm) was measured using a SpectraMax M5 microplate reader (Molecular Devices) with SoftMax Pro 5.2 software (Phoenix Technologies).

T1 sequence (Q60928 380-568): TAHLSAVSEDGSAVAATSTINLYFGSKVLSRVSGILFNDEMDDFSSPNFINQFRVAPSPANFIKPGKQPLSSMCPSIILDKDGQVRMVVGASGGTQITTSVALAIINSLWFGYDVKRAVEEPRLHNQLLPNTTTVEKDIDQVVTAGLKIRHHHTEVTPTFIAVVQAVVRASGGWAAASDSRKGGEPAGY
T1 sequence (Q60928 1-379): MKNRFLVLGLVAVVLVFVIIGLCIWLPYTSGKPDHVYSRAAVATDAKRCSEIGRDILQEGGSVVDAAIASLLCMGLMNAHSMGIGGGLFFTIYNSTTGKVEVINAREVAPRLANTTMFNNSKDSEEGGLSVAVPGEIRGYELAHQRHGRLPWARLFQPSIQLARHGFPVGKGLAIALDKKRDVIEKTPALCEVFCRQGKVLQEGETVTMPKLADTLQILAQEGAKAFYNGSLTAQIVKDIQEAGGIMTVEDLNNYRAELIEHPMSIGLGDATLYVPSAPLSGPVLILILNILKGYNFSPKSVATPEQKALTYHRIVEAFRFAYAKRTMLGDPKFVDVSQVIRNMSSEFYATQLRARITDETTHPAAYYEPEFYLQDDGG

N[C@H](C(=O)O)[C@@H]1CC(Cl)=NO1 [Acivicin, (2S)-2-amino-2-[(5S)-3-chloro-4,5-dihydro-1,2-oxazol-5-yl] acetic acid]
fibrin-induced GGT activity in BMDMs: inhibited
